Data as given in PubChem BioAssay (NCI).
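Compound exposure: 48 hours, 5 concentrations, 96-well plates. The concentration for 50% growth inhibition is given as GI50. TGI: total growth inhibition.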

What was measured:
Test in all cases: NCI-60 cell line screen, 48 h
786-0 renal = tested on: 786-0 renal
A498 renal = tested on: A498 renal
A549 NSCLC = tested on: A549 NSCLC
ACHN renal = tested on: ACHN renal
BT-549 breast = tested on: BT-549 breast
CAKI-1 renal = tested on: CAKI-1 renal
CCRF-CEM leukemia = tested on: CCRF-CEM leukemia
COLO 205 colon = tested on: COLO 205 colon
DU-145 prostate = tested on: DU-145 prostate
EKVX NSCLC = tested on: EKVX NSCLC
HCC-2998 colon = tested on: HCC-2998 colon
HCT-116 colon = tested on: HCT-116 colon
HCT-15 colon = tested on: HCT-15 colon
HL-60(TB) leukemia = tested on: HL-60(TB) leukemia
HOP-62 NSCLC = tested on: HOP-62 NSCLC
HOP-92 NSCLC = tested on: HOP-92 NSCLC
HS 578T breast = tested on: HS 578T breast
HT29 colon = tested on: HT29 colon
IGROV1 ovarian = tested on: IGROV1 ovarian
K-562 leukemia = tested on: K-562 leukemia
KM12 colon = tested on: KM12 colon
LOX IMVI melanoma = tested on: LOX IMVI melanoma
M14 melanoma = tested on: M14 melanoma
MALME-3M melanoma = tested on: MALME-3M melanoma
MCF7 breast = tested on: MCF7 breast
MDA-MB-231 breast = tested on: MDA-MB-231 breast
MDA-MB-435 = tested on: MDA-MB-435
MOLT-4 leukemia = tested on: MOLT-4 leukemia
NCI-H226 lung = tested on: NCI-H226 lung
NCI-H23 lung = tested on: NCI-H23 lung
NCI-H460 lung = tested on: NCI-H460 lung
NCI-H522 lung = tested on: NCI-H522 lung
NCI/ADR-RES ovarian = tested on: NCI/ADR-RES ovarian
OVCAR-3 ovarian = tested on: OVCAR-3 ovarian
OVCAR-4 ovarian = tested on: OVCAR-4 ovarian
OVCAR-5 ovarian = tested on: OVCAR-5 ovarian
OVCAR-8 ovarian = tested on: OVCAR-8 ovarian
PC-3 prostate = tested on: PC-3 prostate
RPMI-8226 leukemia = tested on: RPMI-8226 leukemia
RXF 393 renal = tested on: RXF 393 renal
SF-268 CNS = tested on: SF-268 CNS
SF-295 CNS = tested on: SF-295 CNS
SF-539 CNS = tested on: SF-539 CNS
SK-MEL-2 melanoma = tested on: SK-MEL-2 melanoma
SK-MEL-28 melanoma = tested on: SK-MEL-28 melanoma
SK-MEL-5 melanoma = tested on: SK-MEL-5 melanoma
SK-OV-3 ovarian = tested on: SK-OV-3 ovarian
SN12C renal = tested on: SN12C renal
SNB-19 CNS = tested on: SNB-19 CNS
SNB-75 CNS = tested on: SNB-75 CNS
SR leukemia = tested on: SR leukemia
SW-620 colon = tested on: SW-620 colon
T-47D breast = tested on: T-47D breast
TK-10 renal = tested on: TK-10 renal
U251 CNS = tested on: U251 CNS
UACC-257 melanoma = tested on: UACC-257 melanoma
UACC-62 melanoma = tested on: UACC-62 melanoma
UO-31 renal = tested on: UO-31 renal

O=C(Nc1ccc(Cl)cc1)c1cc2c(cc1O)[nH]c1ccccc12
GI50 (786-0 renal): 2.76 µM | TGI (786-0 renal): 7.54 µM | GI50 (A498 renal): 2.56 µM | TGI (A498 renal): 7.29 µM | GI50 (A549 NSCLC): 2.85 µM | TGI (A549 NSCLC): 10.3 µM | GI50 (ACHN renal): 3.11 µM | TGI (ACHN renal): 11.1 µM | GI50 (BT-549 breast): 2.29 µM | TGI (BT-549 breast): 6.1 µM | GI50 (CAKI-1 renal): 2.26 µM | TGI (CAKI-1 renal): 6.02 µM | GI50 (CCRF-CEM leukemia): 4.37 µM | TGI (CCRF-CEM leukemia): > 100 µM | GI50 (COLO 205 colon): 2.39 µM | TGI (COLO 205 colon): 5.53 µM | GI50 (DU-145 prostate): 3.81 µM | TGI (DU-145 prostate): 13.2 µM | GI50 (EKVX NSCLC): 2.16 µM | TGI (EKVX NSCLC): 7.89 µM | GI50 (HCC-2998 colon): 2 µM | TGI (HCC-2998 colon): 5.27 µM | GI50 (HCT-116 colon): 2.95 µM | TGI (HCT-116 colon): 10.3 µM | GI50 (HCT-15 colon): 3.24 µM | TGI (HCT-15 colon): 13.1 µM | GI50 (HL-60(TB) leukemia): 4.43 µM | TGI (HL-60(TB) leukemia): > 100 µM | GI50 (HOP-62 NSCLC): 2.8 µM | TGI (HOP-62 NSCLC): 6.6 µM | GI50 (HOP-92 NSCLC): 3.18 µM | TGI (HOP-92 NSCLC): 12.5 µM | GI50 (HS 578T breast): 3.08 µM | TGI (HS 578T breast): 14.5 µM | GI50 (HT29 colon): 5.08 µM | TGI (HT29 colon): 17.9 µM | GI50 (IGROV1 ovarian): 4.31 µM | TGI (IGROV1 ovarian): 18.7 µM | GI50 (K-562 leukemia): 4.28 µM | TGI (K-562 leukemia): > 100 µM | GI50 (KM12 colon): 2.89 µM | TGI (KM12 colon): 7.27 µM | GI50 (LOX IMVI melanoma): 3.48 µM | TGI (LOX IMVI melanoma): 13.1 µM | GI50 (M14 melanoma): 2.85 µM | TGI (M14 melanoma): 10.4 µM | GI50 (MALME-3M melanoma): 2.45 µM | TGI (MALME-3M melanoma): 5.76 µM | GI50 (MCF7 breast): 2.56 µM | TGI (MCF7 breast): 10 µM | GI50 (MDA-MB-231 breast): 2.24 µM | TGI (MDA-MB-231 breast): 6.94 µM | GI50 (MDA-MB-435): 2.12 µM | TGI (MDA-MB-435): 5.85 µM | GI50 (MOLT-4 leukemia): 4.18 µM | TGI (MOLT-4 leukemia): 47.4 µM | GI50 (NCI-H226 lung): 2.52 µM | TGI (NCI-H226 lung): 9.46 µM | GI50 (NCI-H23 lung): 2.54 µM | TGI (NCI-H23 lung): 9.68 µM | GI50 (NCI-H460 lung): 3.11 µM | TGI (NCI-H460 lung): 10.2 µM | GI50 (NCI-H522 lung): 2.88 µM | TGI (NCI-H522 lung): 10.6 µM | GI50 (NCI/ADR-RES ovarian): 2.87 µM | TGI (NCI/ADR-RES ovarian): 8.93 µM | GI50 (OVCAR-3 ovarian): 3.72 µM | TGI (OVCAR-3 ovarian): 12.2 µM | GI50 (OVCAR-4 ovarian): 4.66 µM | TGI (OVCAR-4 ovarian): 17.6 µM | GI50 (OVCAR-5 ovarian): 3.72 µM | TGI (OVCAR-5 ovarian): 16.2 µM | GI50 (OVCAR-8 ovarian): 3.25 µM | TGI (OVCAR-8 ovarian): 12.9 µM | GI50 (PC-3 prostate): 3.96 µM | TGI (PC-3 prostate): 22.8 µM | GI50 (RPMI-8226 leukemia): 2.71 µM | TGI (RPMI-8226 leukemia): 8.45 µM | GI50 (RXF 393 renal): 5.14 µM | TGI (RXF 393 renal): 20.6 µM | GI50 (SF-268 CNS): 3.92 µM | TGI (SF-268 CNS): 14.7 µM | GI50 (SF-295 CNS): 1.67 µM | TGI (SF-295 CNS): 3.87 µM | GI50 (SF-539 CNS): 2.34 µM | TGI (SF-539 CNS): 6.04 µM | GI50 (SK-MEL-2 melanoma): 2.47 µM | TGI (SK-MEL-2 melanoma): 6.98 µM | GI50 (SK-MEL-28 melanoma): 4.41 µM | TGI (SK-MEL-28 melanoma): 15.5 µM | GI50 (SK-MEL-5 melanoma): 1.74 µM | TGI (SK-MEL-5 melanoma): 3.41 µM | GI50 (SK-OV-3 ovarian): 2.32 µM | TGI (SK-OV-3 ovarian): 6.51 µM | GI50 (SN12C renal): 2.93 µM | TGI (SN12C renal): 11.3 µM | GI50 (SNB-19 CNS): 3.43 µM | TGI (SNB-19 CNS): 30.6 µM | GI50 (SNB-75 CNS): 3.23 µM | TGI (SNB-75 CNS): 8.78 µM | GI50 (SR leukemia): 3.44 µM | TGI (SR leukemia): 31.6 µM | GI50 (SW-620 colon): 3.4 µM | TGI (SW-620 colon): 13.4 µM | GI50 (T-47D breast): 2.37 µM | TGI (T-47D breast): 6.78 µM | GI50 (TK-10 renal): 2.54 µM | TGI (TK-10 renal): 6.56 µM | GI50 (U251 CNS): 3.18 µM | TGI (U251 CNS): 11.3 µM | GI50 (UACC-257 melanoma): 2.48 µM | TGI (UACC-257 melanoma): 6.66 µM | GI50 (UACC-62 melanoma): 2.49 µM | TGI (UACC-62 melanoma): 8.89 µM | GI50 (UO-31 renal): 2.86 µM | TGI (UO-31 renal): 12.9 µM
